# Assay results published in PMC7110753, “Dafachronic acid and temperature regulate canonical dauer pathways during Nippostrongylus brasiliensis infectious larvae activation” (Parasites & Vectors, 2020).
# Tests used:
# Cel-DAF-12 (DAF-12) = Cel-DAF-12 (DAF-12) (Caenorhabditis elegans, UniProt G5EFF5); test: co-transfection luciferase reporter assay in HEK293 cells (agonist, dose response in Fig. 1b); type: cell-based
# [1] = test system: Nbr-DAF-12 (DAF-12 nuclear hormone receptor); test: co-transfection luciferase reporter assay in HEK293 cells (agonist)
# Sequence of Cel-DAF-12 (DAF-12) (G5EFF5 whole entry): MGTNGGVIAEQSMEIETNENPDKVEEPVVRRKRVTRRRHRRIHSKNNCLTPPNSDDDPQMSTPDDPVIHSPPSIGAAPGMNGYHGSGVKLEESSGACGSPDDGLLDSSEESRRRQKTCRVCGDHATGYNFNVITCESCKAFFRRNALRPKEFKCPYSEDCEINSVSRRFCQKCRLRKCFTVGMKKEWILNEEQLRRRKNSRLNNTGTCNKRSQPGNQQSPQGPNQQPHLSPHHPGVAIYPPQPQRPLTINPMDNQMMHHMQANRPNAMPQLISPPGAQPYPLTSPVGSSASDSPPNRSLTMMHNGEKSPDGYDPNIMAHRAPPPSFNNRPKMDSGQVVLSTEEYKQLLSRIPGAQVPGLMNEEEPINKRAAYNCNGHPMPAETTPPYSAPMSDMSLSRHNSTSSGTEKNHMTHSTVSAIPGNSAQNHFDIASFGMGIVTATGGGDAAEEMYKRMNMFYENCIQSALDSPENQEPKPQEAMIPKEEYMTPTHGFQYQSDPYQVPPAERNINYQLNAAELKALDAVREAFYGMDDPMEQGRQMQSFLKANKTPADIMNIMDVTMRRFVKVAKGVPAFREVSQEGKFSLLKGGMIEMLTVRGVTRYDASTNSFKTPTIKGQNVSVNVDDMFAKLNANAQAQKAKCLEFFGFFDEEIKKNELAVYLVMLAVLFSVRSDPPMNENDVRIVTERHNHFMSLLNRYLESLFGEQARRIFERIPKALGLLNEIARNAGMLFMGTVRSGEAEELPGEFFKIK
substance,measurement,setting,value
Δ7-dafachronic acid,"co-transfection luciferase reporter assay in HEK293 cells (agonist, dose respons)",Cel-DAF-12 (DAF-12),responds more weakly to Δ7-dafachronic acid than DAF-12 from either the canine hookworm A. caninum (Aca-DAF-12) or the free-living C. elegans
same,EC50,[1],115 nM
